In article PMC9250534, “Synthesis and direct assay of large macrocycle diversities by combinatorial late-stage modification at picomole scale” (Nature Communications, 2022):
Numbered stars: 1 amine (or outer) side, 2 acyl side, 3 side chain; on linkers, the order of the positions; unused ones are H or OH. Bridge positions count the residues as written; N and C are the ends. Square brackets hold non-standard residues; d marks the D form. Peptide text beside a SMILES is read from it. * marks the point of attachment. 2Thenoyl(5-Cl) = O=C(c1ccc(Cl)s1)*; Cysteamide = C(CS[*:3])N[*:1]; dDap = NC[C@@H](N)C(=O)O; Orn = NCCC[CH](N)C(=O)O; Dap = NC[CH](N)C(=O)O; Mpa = O=C(O)CCS

Target: T1, thrombin (Homo sapiens, UniProt P00734)
T1 construct: consists of two polypeptide chains of 36 (light chain) and 259 amino acid
Test: Thrombin inhibition screen of crude macrocycle reactions (residual thrombin activity, fluorogenic substrate Z-Gly-Gly-Arg-AMC)
Format: biochemical
Conditions: 10 µM macrocycle concentration, macrocycles containing acid 14, crude reaction; for % thrombin activity, Repeat screen: replicate reaction and screen
Summary of the method: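 Each crude macrocycle (10 μM) was preincubated 10 min at room temperature with thrombin (2 nM final) in Tris-Cl pH 7.4 containing NaCl, MgCl2, CaCl2, 0.1% BSA, 0.01% Triton X-100 and 0.6% DMSO. Z-Gly-Gly-Arg-AMC (50 μM final) was then added. Inhibition came from fluorescence slopes relative to DMSO-only controls.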

| SMILES | % thrombin activity, Original screen [%] | % thrombin activity, Repeat screen [%] | % thrombin activity, Original screen (listed as X D3 B1 V) [%] | % thrombin activity, Repeat screen (listed as X D3 B1 V) [%] | % thrombin activity, Original screen (listed as X D6 V B5) [%] | % thrombin activity, Repeat screen (listed as X D6 V B5) [%] |
| --- | --- | --- | --- | --- | --- | --- |
| O=C1CCSSCCNC(=O)C2CCCN2C(=O)C(Cc2ccc(O)cc2)NC(=O)C(CCCNC(=O)c2ccc(Cl)s2)N1 (stereo not drawn) [X D2 Y B1] ([Mpa][Orn](2Thenoyl(5-Cl))YP-Cysteamide; disulfide 1-C; configuration not given here) | 96.4 | 96.3 |  |  |  |  |
| C[C@H]1NC(=O)[C@H](CCCNC(=O)c2ccc(Cl)s2)NC(=O)CCSSCCNC(=O)CCNC1=O [X D2 a B2] | 108.5 | 109.5 |  |  |  |  |
| CC(C)C1NC(=O)C2CCCN2C(=O)C(CNC(=O)c2ccc(Cl)s2)NC(=O)CCSSCCNC1=O (stereo not drawn) [X D3 B1 v] ([Mpa][Dap](2Thenoyl(5-Cl))PV-Cysteamide; disulfide 1-C; configuration not given here) | 92.1 | 95.4 | 98.0 | 99.7 |  |  |
| O=C1CCSSCCNC(=O)C(Cc2c[nH]cn2)NC(=O)CCNC(=O)C(CNC(=O)c2ccc(Cl)s2)N1 (stereo not drawn) [X D3 B2 H] | 78.9 | 71.1 |  |  |  |  |
| NC(=O)CCC1NC(=O)CCNC(=O)C(CNC(=O)c2ccc(Cl)s2)NC(=O)CCSSCCNC1=O (stereo not drawn) [X D3 B2 Q] | 91.4 | 92.1 |  |  |  |  |
| O=C1CCSSCCNC(=O)[C@H](Cc2c[nH]c3ccccc23)NC(=O)c2ccc(cc2)CNC(=O)[C@H](CNC(=O)c2ccc(Cl)s2)N1 [X D3 B3 W] | 68.7 | 73.3 |  |  |  |  |
| O=C1CCSSCCNC(=O)[C@H](Cc2ccccc2)NC(=O)[C@H]2CCCN(C2)C(=O)[C@H](CNC(=O)c2ccc(Cl)s2)N1 [X D3 B4 F] | 66.8 | 62.9 |  |  |  |  |
| O=C1CCSSCCNC(=O)c2ccc(cc2)CNC(=O)[C@H](Cc2c[nH]c3ccccc23)NC(=O)[C@H](CNC(=O)c2ccc(Cl)s2)N1 [X D3 W B3] | 101.5 | 109.4 |  |  |  |  |
| O=C1CCNC(=O)[C@@H](Cc2ccc(O)cc2)NC(=O)[C@H](CNC(=O)c2ccc(Cl)s2)NC(=O)CCSSCCN1 [X D3 y B2] | 78.6 | 75.2 |  |  |  |  |
| CC1NC(=O)C(CNC(=O)c2ccc(Cl)s2)NC(=O)CCSSCCNC(=O)c2cccc(c2)CNC1=O (stereo not drawn) [X D4 a B5] | 103.5 | 106.9 |  |  |  |  |
| O=C1CCSSCCNC(=O)[C@@H]2CCCN2C(=O)[C@@H](Cc2c[nH]c3ccccc23)NC(=O)[C@@H](CNC(=O)c2ccc(Cl)s2)N1 [X D4 w B1] ([Mpa][dDap](2Thenoyl(5-Cl))[dW]P-Cysteamide; disulfide 1-C) | 68.9 | 70.9 |  |  |  |  |
| O=C1CCNC(=O)[C@@H](Cc2c[nH]c3ccccc23)NC(=O)[C@@H](CNC(=O)c2ccc(Cl)s2)NC(=O)CCSSCCN1 [X D4 w B2] | 90.8 | 96.7 |  |  |  |  |
| O=C1CCNC(=O)C2CC(NC(=O)c3ccc(Cl)s3)CN2C(=O)CCSSCCNC(=O)C(CO)N1 (stereo not drawn) [X D5 B2 S] | 115.0 | 124.0 |  |  |  |  |
| CC(C)CC1NC(=O)C2(CC2)CNC(=O)C2CC(NC(=O)c3ccc(Cl)s3)CN2C(=O)CCSSCCNC1=O (stereo not drawn) [X D5 B6 L] | 114.0 | 116.8 |  |  |  |  |
| O=C1NCCSSCCC(=O)N2CC(NC(=O)c3ccc(Cl)s3)CC2C(=O)NC(CO)C(=O)NCc2ccc1cc2 (stereo not drawn) [X D5 s B3] | 92.6 | 101.4 |  |  |  |  |
| CC[C@H](C)[C@@H]1NC(=O)CCNC(=O)C2(CCN(C(=O)c3ccc(Cl)s3)CC2)NC(=O)CCSSCCNC1=O [X D6 B2 I] | 104.4 | 109.7 |  |  |  |  |
| CC(C)C[C@@H]1NC(=O)c2cccc(c2)CNC(=O)C2(CCN(C(=O)c3ccc(Cl)s3)CC2)NC(=O)CCSSCCNC1=O [X D6 B5 L] | 105.2 | 108.9 |  |  |  |  |
| O=C1CCSSCCNC(=O)[C@H](Cc2c[nH]cn2)NC(=O)C2(CC2)CNC(=O)C2(CCN(C(=O)c3ccc(Cl)s3)CC2)N1 [X D6 B6 H] | 96.8 | 96.5 |  |  |  |  |
| CC(C)C1NC(=O)C2(CCN(C(=O)c3ccc(Cl)s3)CC2)NC(=O)CCSSCCNC(=O)C2CCCN(C2)C1=O (stereo not drawn) [X D6 V B4] | 81.5 | 80.4 |  |  |  |  |
| O=C1CCSSCCNC(=O)[C@H]2CCCN(C2)C(=O)[C@H](Cc2c[nH]c3ccccc23)NC(=O)C2(CCN(C(=O)c3ccc(Cl)s3)CC2)N1 [X D6 W B4] | 95.3 | 101.4 |  |  |  |  |
| CC(C)[C@H]1NC(=O)C2(CCN(C(=O)c3ccc(Cl)s3)CC2)NC(=O)CCSSCCNC(=O)c2cccc(c2)CNC1=O [X D6 v B5] | 84.9 | 90.5 |  |  | 98.9 | 103.9 |
| O=C1CCNC(=O)[C@@H](Cc2ccc(O)cc2)NC(=O)C2(CCN(C(=O)c3ccc(Cl)s3)CC2)NC(=O)CCSSCCN1 [X D6 y B2] | 102.0 | 104.5 |  |  |  |  |
| O=C1CCNC(=O)[C@H](Cc2c[nH]cn2)NC(=O)CCSSCCNC(=O)[C@H](CCCNC(=O)c2ccc(Cl)s2)N1 [X H B2 D2] | 94.6 | 91.5 |  |  |  |  |
| CC[C@H](C)[C@@H]1NC(=O)CCSSCCNC(=O)[C@H]2CCCN(C2)C(=O)[C@H](CCCCNC(=O)c2ccc(Cl)s2)NC1=O [X I D1 B4] | 102.2 | 101.6 |  |  |  |  |
| CC[C@H](C)[C@@H]1NC(=O)CCSSCCNC(=O)c2ccc(cc2)CNC(=O)[C@H](CNC(=O)c2ccc(Cl)s2)NC1=O [X I D3 B3] | 102.3 | 104.9 |  |  |  |  |

More lines, now with the values ahead:

| % thrombin activity, Original screen [%] | % thrombin activity, Repeat screen [%] | % thrombin activity, Original screen (listed as X D3 B1 V) [%] | % thrombin activity, Repeat screen (listed as X D3 B1 V) [%] | % thrombin activity, Original screen (listed as X D6 V B5) [%] | % thrombin activity, Repeat screen (listed as X D6 V B5) [%] | SMILES |
| --- | --- | --- | --- | --- | --- | --- |
| 56.1 | 56.2 |  |  |  |  | O=C1CCSSCCNC(=O)[C@H](Cc2ccccc2)NC(=O)CCNC(=O)[C@H](CNC(=O)c2ccc(Cl)s2)N1 [X D3 B2 F] |
| 77.4 | 84.4 |  |  |  |  | O=C1CCSSCCNC(=O)[C@@H](Cc2ccccc2)NC(=O)c2ccc(cc2)CNC(=O)[C@H](CNC(=O)c2ccc(Cl)s2)N1 [X D3 B3 f] |
| 94.4 | 90.2 |  |  |  |  | NC(=O)CCC1NC(=O)C2CCCN(C2)C(=O)C(CNC(=O)c2ccc(Cl)s2)NC(=O)CCSSCCNC1=O (stereo not drawn) [X D3 B4 Q] |
| 70.6 | 70.5 |  |  |  |  | O=C1CCSSCCNC(=O)[C@H](Cc2ccc(O)cc2)NC(=O)C2(CC2)CNC(=O)[C@H](CNC(=O)c2ccc(Cl)s2)N1 [X D3 B6 Y] |
| 87.6 | 88.8 |  |  |  |  | CC[C@H](C)[C@@H]1NC(=O)[C@H](CNC(=O)c2ccc(Cl)s2)NC(=O)CCSSCCNC(=O)c2ccc(cc2)CNC1=O [X D3 I B3] |
| 72.8 | 67.3 |  |  |  |  | NC(=O)CC[C@@H]1NC(=O)[C@H](CNC(=O)c2ccc(Cl)s2)NC(=O)CCSSCCNC(=O)C2(CC2)CNC1=O [X D3 Q B6] |
| 110.6 | 115.5 |  |  |  |  | CC(C)CC1NC(=O)C2CC(NC(=O)c3ccc(Cl)s3)CN2C(=O)CCSSCCNC(=O)c2ccc(cc2)CNC1=O (stereo not drawn) [X D5 L B3] |
| 94.2 | 89.4 |  |  |  |  | CC(C)CC1NC(=O)C2CC(NC(=O)c3ccc(Cl)s3)CN2C(=O)CCSSCCNC(=O)C2CCCN(C2)C1=O (stereo not drawn) [X D5 L B4] |
| 94.5 | 101.1 |  |  |  |  | NC(=O)CCC1NC(=O)C2CC(NC(=O)c3ccc(Cl)s3)CN2C(=O)CCSSCCNC(=O)c2ccc(cc2)CNC1=O (stereo not drawn) [X D5 Q B3] |
| 92.0 | 95.8 |  |  |  |  | CC1NC(=O)c2ccc(cc2)CNC(=O)C2(CCN(C(=O)c3ccc(Cl)s3)CC2)NC(=O)CCSSCCNC1=O (stereo not drawn) [X D6 B3 a] |
| 92.3 | 95.8 |  |  |  |  | O=C1CCSSCCNC(=O)[C@@H](Cc2ccccc2)NC(=O)c2cccc(c2)CNC(=O)C2(CCN(C(=O)c3ccc(Cl)s3)CC2)N1 [X D6 B5 f] |
| 95.8 | 95.8 |  |  |  |  | O=C1CCSSCCNC(=O)C2CCCN2C(=O)C(CCCNC(=O)c2ccc(Cl)s2)NC(=O)C(Cc2c[nH]cn2)N1 (stereo not drawn) [X H D2 B1] ([Mpa]H[Orn](2Thenoyl(5-Cl))P-Cysteamide; disulfide 1-C; configuration not given here) |
| 91.3 | 90.1 |  |  |  |  | CC[C@H](C)[C@@H]1NC(=O)CCSSCCNC(=O)[C@H](CNC(=O)c2ccc(Cl)s2)NC(=O)[C@@H]2CCCN2C1=O [X I B1 D3] ([Mpa]IP[Dap](2Thenoyl(5-Cl))-Cysteamide; disulfide 1-C) |
| 72.9 | 70.2 |  |  |  |  | CC[C@H](C)[C@@H]1NC(=O)CCSSCCNC(=O)[C@H](CNC(=O)c2ccc(Cl)s2)NC(=O)CCNC1=O [X I B2 D3] |
| 94.8 | 97.2 |  |  |  |  | CC(C)C[C@@H]1NC(=O)CCSSCCNC(=O)[C@H](CCCCNC(=O)c2ccc(Cl)s2)NC(=O)C2(CC2)CNC1=O [X L B6 D1] |
